From BindingDB's records for patent US10851102 (Theravance Biopharma R&D Ip, 2020)

Columns and labels:
[1] = biological target: Tyrosine-protein kinase JAK2 (Homo sapiens, UniProt O60674)
[2] = biological target: T1, Tyrosine-protein kinase JAK3 (Homo sapiens, UniProt P52333)
T1 sequence (P52333 whole entry): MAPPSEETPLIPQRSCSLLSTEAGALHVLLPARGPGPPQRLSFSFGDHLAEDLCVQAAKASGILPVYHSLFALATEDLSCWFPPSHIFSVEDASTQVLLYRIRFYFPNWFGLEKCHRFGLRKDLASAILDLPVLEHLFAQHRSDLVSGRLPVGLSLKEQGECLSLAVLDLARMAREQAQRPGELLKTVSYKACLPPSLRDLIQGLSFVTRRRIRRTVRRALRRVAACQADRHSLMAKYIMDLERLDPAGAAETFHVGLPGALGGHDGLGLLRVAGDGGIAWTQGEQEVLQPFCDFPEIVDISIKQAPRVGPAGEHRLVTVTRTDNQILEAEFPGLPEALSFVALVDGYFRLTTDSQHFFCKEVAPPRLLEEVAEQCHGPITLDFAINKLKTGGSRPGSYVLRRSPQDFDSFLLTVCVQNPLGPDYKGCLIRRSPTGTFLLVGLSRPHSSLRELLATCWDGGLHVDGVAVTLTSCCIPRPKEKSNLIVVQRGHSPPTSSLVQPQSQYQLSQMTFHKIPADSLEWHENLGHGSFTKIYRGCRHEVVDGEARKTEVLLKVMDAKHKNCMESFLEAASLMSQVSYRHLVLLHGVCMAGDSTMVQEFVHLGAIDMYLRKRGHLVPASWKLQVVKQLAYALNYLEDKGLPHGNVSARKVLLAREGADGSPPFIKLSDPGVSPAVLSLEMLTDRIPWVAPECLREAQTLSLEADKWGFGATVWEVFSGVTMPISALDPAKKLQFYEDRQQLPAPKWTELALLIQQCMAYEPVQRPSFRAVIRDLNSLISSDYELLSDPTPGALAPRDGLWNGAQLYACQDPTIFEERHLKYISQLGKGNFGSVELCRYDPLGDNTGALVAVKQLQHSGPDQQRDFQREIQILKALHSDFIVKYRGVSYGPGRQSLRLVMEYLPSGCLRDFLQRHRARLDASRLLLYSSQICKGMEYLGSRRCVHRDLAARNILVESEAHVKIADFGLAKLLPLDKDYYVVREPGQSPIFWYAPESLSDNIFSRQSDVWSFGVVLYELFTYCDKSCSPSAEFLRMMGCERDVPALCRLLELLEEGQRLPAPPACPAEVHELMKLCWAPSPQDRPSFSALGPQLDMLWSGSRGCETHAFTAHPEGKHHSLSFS

[3] = biological target: Non-receptor tyrosine-protein kinase TYK2 (Homo sapiens, UniProt P29597)
Chain of Non-receptor tyrosine-protein kinase TYK2 (P29597 whole entry): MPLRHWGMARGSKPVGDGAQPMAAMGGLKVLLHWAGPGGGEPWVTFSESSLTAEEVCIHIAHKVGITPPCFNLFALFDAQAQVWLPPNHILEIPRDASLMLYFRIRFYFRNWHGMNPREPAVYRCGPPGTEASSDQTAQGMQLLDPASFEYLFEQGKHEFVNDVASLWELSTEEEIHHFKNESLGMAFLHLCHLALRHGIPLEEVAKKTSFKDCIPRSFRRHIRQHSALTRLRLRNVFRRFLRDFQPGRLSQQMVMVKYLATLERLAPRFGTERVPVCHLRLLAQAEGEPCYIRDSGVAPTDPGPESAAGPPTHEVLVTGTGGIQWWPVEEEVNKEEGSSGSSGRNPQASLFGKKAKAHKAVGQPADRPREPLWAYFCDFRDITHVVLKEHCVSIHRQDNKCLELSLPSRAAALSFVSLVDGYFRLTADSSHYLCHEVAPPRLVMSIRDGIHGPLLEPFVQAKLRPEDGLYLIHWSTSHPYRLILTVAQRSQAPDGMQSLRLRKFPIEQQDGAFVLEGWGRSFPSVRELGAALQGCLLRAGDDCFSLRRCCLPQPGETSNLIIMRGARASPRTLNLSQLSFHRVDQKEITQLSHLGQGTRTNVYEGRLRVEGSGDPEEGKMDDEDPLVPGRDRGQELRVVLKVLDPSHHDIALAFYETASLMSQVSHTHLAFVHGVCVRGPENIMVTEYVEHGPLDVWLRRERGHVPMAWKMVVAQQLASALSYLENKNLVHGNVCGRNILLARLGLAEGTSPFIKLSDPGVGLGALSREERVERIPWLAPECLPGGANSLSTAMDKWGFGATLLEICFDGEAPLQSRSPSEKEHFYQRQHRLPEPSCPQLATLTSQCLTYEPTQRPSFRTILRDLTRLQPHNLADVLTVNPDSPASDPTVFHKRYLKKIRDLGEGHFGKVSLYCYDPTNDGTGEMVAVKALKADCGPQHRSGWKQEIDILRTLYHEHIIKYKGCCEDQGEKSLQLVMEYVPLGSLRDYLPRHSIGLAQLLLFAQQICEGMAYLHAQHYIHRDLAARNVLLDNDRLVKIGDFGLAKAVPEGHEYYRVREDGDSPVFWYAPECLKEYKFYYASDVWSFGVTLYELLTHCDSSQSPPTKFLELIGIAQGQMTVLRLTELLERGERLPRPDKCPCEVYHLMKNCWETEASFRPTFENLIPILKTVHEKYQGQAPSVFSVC

Chain of Tyrosine-protein kinase JAK2 (O60674 whole entry): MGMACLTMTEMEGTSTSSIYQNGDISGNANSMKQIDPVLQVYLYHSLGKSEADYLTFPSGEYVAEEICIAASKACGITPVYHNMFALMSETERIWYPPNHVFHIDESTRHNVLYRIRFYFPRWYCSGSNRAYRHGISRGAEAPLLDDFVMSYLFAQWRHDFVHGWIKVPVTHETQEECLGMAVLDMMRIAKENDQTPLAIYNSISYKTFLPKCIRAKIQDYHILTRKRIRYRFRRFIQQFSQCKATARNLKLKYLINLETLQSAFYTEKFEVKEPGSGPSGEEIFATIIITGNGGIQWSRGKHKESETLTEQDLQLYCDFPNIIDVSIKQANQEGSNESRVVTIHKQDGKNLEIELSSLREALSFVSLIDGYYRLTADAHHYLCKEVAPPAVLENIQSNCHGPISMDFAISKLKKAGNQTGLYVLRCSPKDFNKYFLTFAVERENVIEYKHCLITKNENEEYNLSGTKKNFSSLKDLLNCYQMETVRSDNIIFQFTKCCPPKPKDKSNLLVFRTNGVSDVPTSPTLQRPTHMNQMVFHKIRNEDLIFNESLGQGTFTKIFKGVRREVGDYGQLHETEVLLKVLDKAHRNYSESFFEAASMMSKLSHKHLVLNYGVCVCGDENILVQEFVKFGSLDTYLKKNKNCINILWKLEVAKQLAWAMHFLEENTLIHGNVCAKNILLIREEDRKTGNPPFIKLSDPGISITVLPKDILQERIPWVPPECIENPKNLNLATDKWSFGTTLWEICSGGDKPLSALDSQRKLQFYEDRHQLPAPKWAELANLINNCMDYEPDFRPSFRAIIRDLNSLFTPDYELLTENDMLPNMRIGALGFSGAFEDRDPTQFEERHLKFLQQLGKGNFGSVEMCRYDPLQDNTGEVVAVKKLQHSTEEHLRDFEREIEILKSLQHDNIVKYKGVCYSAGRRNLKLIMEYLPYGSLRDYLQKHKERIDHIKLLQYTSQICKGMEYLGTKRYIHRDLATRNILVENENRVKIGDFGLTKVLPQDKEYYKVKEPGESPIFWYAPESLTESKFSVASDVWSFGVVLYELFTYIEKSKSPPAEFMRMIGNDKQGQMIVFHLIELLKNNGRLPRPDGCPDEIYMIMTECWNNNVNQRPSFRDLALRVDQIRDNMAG

For C=CC(=O)N1[C@@H]2CC[C@H]1C[C@H](Oc1cc(-c3ccc(O)cc3)cn3cncc13)C2 [US10851102, Example 10], the Ki [1] was greater than 0.1 µM, the Ki [2] was less than 0.0001 µM and the Ki [3] was greater than 0.1 µM.
